{
  "source": "patent US20220273732A1",
  "about": "“PROBIOTIC THERAPIES FOR SOCIAL DEFICIT AND STRESS RESPONSE” (California Institute of Technology, priority 2021, published 2022)",
  "key": {"mice [1]": {"system": "mice", "assay": "Reciprocal social interaction (RSI) test, social activity", "assay_type": "in vivo", "conditions": "for social activity of ABX adrenalectomized mice: under drug treatment, compared to ABX sham and vehicle sham mice"}, "mice [2]": {"system": "mice", "assay": "Non-social activity (self-grooming, digging, rearing) in the RSI paradigm", "assay_type": "in vivo", "from_the_text": "Minimal aggressive behaviors were observed. Each novel mouse was used for testing up to two times per day. Subject mice undergoing repeated testing throughout the experiment were confronted with a novel mouse each time. The following social investigation behaviors constituted “social activity” and were scored as such: anogenital sniffing, nose-nose sniffing, active approach, and push under/crawl. The following solitary behaviors during social interaction constituted “non-social activity” and were scored as such: self-grooming, digging, and rearing. All behaviors were analyzed using of ETHOM software (Shih, 2000).\nNovel cage behavior is a widely-used test for measuring the non-social activity in a novel environment. The subject mouse was placed in an unused, sterilized cage. Non-social activity was video recorded for 5 minutes. The following solitary behaviors during social interaction constituted “non-social activity” and were scored as such: self-grooming, digging, and rearing. All behaviors were analyzed using of ETHOM software (Shih, 2000)."}, "c-Fos": {"system": "c-Fos", "assay": "c-Fos staining of brain sections after social interaction", "assay_type": "in vivo", "conditions": "ABX hM4Di mice, CNO", "procedure": "All brain samples for c-Fos expression were collected one hour after the reciprocal social interaction test. Mice were anesthetized by intraperitoneal injection with a mixture of 100 mg/kg ketamine and 10 mg/kg xylazine. The mice were then perfused via the cardiovascular system with PBS followed by 4% paraformaldehyde (Electron Microscopy Sciences). Brains were removed and post-fixed in 4% paraformaldehyde 3-5 days at 4° C. The brains were kept in PBS with 0.02% sodium azide at 4° C. until sectioning.\nThe brains were embedded in 4% UltraPure low melting point agarose (ThermoFisher) and were coronally sectioned by vibratome (VT1000S; Leica) at a thickness of 50 μm, with the exception of the brain sections for FIGS. 1D-1F that were sectioned at a thickness of 100 μm. Brain sections of 50 μm were collected and stained every 0.15 mm. Brain sections of 100 μm were collected sequentially and stained entirely. The brain sections were stored as free-floating in PBS with 0.02% sodium azide at 4° C. until staining. […] The next day, sections were incubated with fluorescence-conjugated secondary antibody for 1.5-2 hours at room temperature. […] The fluorescence-conjugated secondary antibodies were donkey anti-goat (1:1000), donkey anti-rabbit (1:1000), and donkey anti-mouse (1:1000) (ThermoFisher Scientific). […]"}, "corticosterone": {"system": "corticosterone", "assay": "Serum corticosterone measurement (Corticosterone EIA Kit)", "assay_type": "in vivo, mice", "conditions": "for serum corticosterone: CNO i.p.; for serum corticosterone levels: GF mice, 50 mg/kg i.p., vs CMC vehicle, 50 mg/kg", "procedure": "Whole blood was collected either by cardiac puncture or retro-orbital bleeding, and placed into Micro tube Z gel (41.1378.005; Sarstedt). Serum was separated by centrifuge at 10,000×g for five minutes, and stored at −80° C. until use. Corticosterone levels were detected by the Corticosterone EIA Kit (K014-H5; Arbor Assays) using the manufacturer's protocol. Due to the nature of the circadian rhythm for the corticosterone, the blood sample was collected during 1:00-5:00 pm on each day of experiment."}},
  "note": "“Also recorded” adds a separate entry of the source. No end group written: not given here.",
  "data": [
    {"molecule": "CRF: synthetic corticotropin-releasing factor (SEEPPISLDLTFHLLREVLEMARAEQLAQQAHSNRKLMEII; ends and bridges not checked; UniProt P06850 154-194, looked up)", "values": [
      {"measurement": "social activity toward a novel mouse", "setting": "mice [1]; injection into the PVN of SPF mice (210 μM or 42 μM, 450 nL per hemisphere)", "result": "dramatically reduced"},
      {"measurement": "non-social activity", "setting": "mice [2]; high levels of CRF into PVN of SPF mice", "result": "reversed these changes"},
      {"measurement": "non-social activity", "setting": "mice [2]; low levels of CRF into PVN of SPF mice", "result": "increased"}
    ]},
    {"molecule": "CC#C[C@]1(O)CC[C@H]2[C@@H]3CCC4=CC(=O)CCC4=C3[C@@H](c3ccc(N(C)C)cc3)C[C@@]21C", "note": "[RU-486, mifepristone]", "values": [
      {"measurement": "social activity", "setting": "mice [1]; ABX control mice vs ABX Nr3cl^ΔDG or Nr3cl^ΔBNST mice, 40 mg/kg i.p.", "result": "enhanced social activity only in ABX control mice"},
      {"measurement": "social activity of ABX adrenalectomized mice", "setting": "mice [1]", "result": "elevated"}
    ]},
    {"molecule": "C[C@]12C[C@H](O)[C@H]3[C@@H](CCC4=CC(=O)CC[C@@]43C)[C@@H]1CC[C@@H]2C(=O)CO", "note": "[corticosterone]", "values": [
      {"measurement": "social behavior", "setting": "mice [1]; acute injection, 10 mg/kg i.p. on two consecutive days, all groups (vehicle sham, ABX sham, ABX ADX)", "result": "impaired"},
      {"measurement": "social activity", "setting": "mice [1]; injection into the DG and BNST of SPF mice (corticosterone 65 μM, dexamethasone 20 mM)", "result": "decreased"}
    ]},
    {"molecule": "C[N+]1([O-])CCN(C2=Nc3cc(Cl)ccc3Nc3ccccc32)CC1", "note": "[CNO, clozapine N-oxide]", "values": [
      {"measurement": "c-Fos expression in the BNST or DG", "setting": "c-Fos", "result": "did not alter"},
      {"measurement": "c-Fos staining in the PVN", "setting": "c-Fos", "result": "decreased"},
      {"measurement": "social behavior", "setting": "mice [1]; ABX Crh-ires-Cre mice with hM4Di in PVN, CNO i.p. 2-3 mg/kg", "result": "dramatically increased"},
      {"measurement": "social behavior", "setting": "mice [1]; ABX mice receiving control virus (mCherry) in PVN, CNO i.p.", "result": "no change"},
      {"measurement": "social behavior", "setting": "mice [1]; SPF hM3Dq mice (PVN), CNO i.p.", "result": "significantly decreased"},
      {"measurement": "non-social activity", "setting": "mice [2]; SPF hM3Dq mice, chemogenetic activation of PVN CRH neurons", "result": "increased"},
      {"measurement": "serum corticosterone", "setting": "corticosterone; ABX hM4Di mice (PVN), after social interaction", "result": "decreased; also recorded: reduction"},
      {"measurement": "serum corticosterone", "setting": "corticosterone; SPF hM3Dq mice (PVN)", "result": "increased"}
    ]},
    {"molecule": "CC(C)(C(=O)c1cccnc1)c1cccnc1", "note": "[metyrapone]", "values": [
      {"measurement": "social activity", "setting": "mice [1]; GF mice, 50 mg/kg i.p., 40 min before test, vs CMC vehicle", "result": "significantly increased"},
      {"measurement": "social activity of ABX sham mice compared to vehicle sham mice", "setting": "mice [1]; during drug treatment i.p. (RU-486 40 mg/kg, MET 50 mg/kg)", "result": "increased"},
      {"measurement": "social activity of ABX adrenalectomized mice", "setting": "mice [1]", "result": "elevated"},
      {"measurement": "serum corticosterone levels", "setting": "corticosterone; after social interaction", "result": "effectively reduced"},
      {"measurement": "serum corticosterone levels", "setting": "corticosterone; after social interaction, listed as MET", "result": "reduction"}
    ]}
  ]
}
